Reference: article PMC6934184, “Selective DNA-PKcs inhibition extends the therapeutic index of localized radiotherapy and chemotherapy” (The Journal of Clinical Investigation, 2019)

Molecular target: T1, CDK2/cyclin A1 (Homo sapiens, UniProt P24941)
T1 construct: purchased Thermo Fisher Scientific (Life Technologies) SelectScreen
Assay: SelectScreen LanthaScreen
Assay type: binding
Details: 1 µM
Summary of the method: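 Percent values come from Thermo SelectScreen profiling of NU5455, combining activity and binding assays. CSF1R was run in Z'LYTE format at Km app ATP, and CAMK1 in Adapta format with ATP listed at 10.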

CN(C(=O)CN1CCOCC1)c1ccc2sc3c(-c4cccc5c(=O)cc(N6CC7CCC(C6)O7)oc45)cccc3c2c1 [NU5455]
% displacement: -1.6%
